According to patent US10556926B2, “Synthetic artificial peptides with antimicrobial effect” (priority 2014, dated 2020):
Read-outs that look alike come from different tables or passages of the source. No end group written: not given here.

Key:
[1] = tested on: human histiocytic lymphoma cell line U937; experiment: Cytotoxicity, direct membrane damage (CytoTox 96), LD50; format: cell-based; details: U937, two hours at 37° C., 0.25-64 μM
Summary of the method: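 Membrane damage in peptide-treated U937 cells measured as LDH release in culture supernatant (30 min substrate, room temperature, dark; absorbance 490 nm). Negative-control signal subtracted and normalized to permeabilization control. LD50 (μM) from sigmoidal fit of relative cytotoxicity (%) versus peptide concentration at 50%.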

[2] = tested on: human histiocytic lymphoma cell line U937; experiment: Long-term growth inhibition, minimum toxic concentration (MTC)
Summary of the method: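 U937 cells (5·10^4/ml final, RPMI 1640 + 2 mM glutamine + 10% FCS) exposed to peptides at 0.25–64 µM for 2 h at 37 °C, 5% CO2, then cultured at least four further days. MTC taken as the lowest peptide concentration giving complete growth suppression after four days.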

[3] = tested on: E. coli ML-35p; experiment: Kinetics of permeabilization of the outer bacteria membrane (nitrocefin); format: cell-based, Escherichia coli
Experimental: The ability of the antimicrobial peptides for the respective permeabilization of the outer and inner bacteria membrane was tested by way of example on E. coli ML-35p (made available by Dr. R. E. Lehrer, Center for Health Sciences, Los Angeles, Calif., USA). The peptides were incubated in serial dilution with E. coli ML-35p and the time-dependent release of cell-internal components was measured in a slightly modified protocol according to Ericsson et al. (2002). For this purpose, the bacteria were cultured in Luria-Bertani (LB) medium with 100 μg/ml ampicillin (Fluka, Taufkirchen, Germany) until reaching an optical density of 0.4 at 600 nm wavelength. Then, the cells were washed three times by centrifugation at 4000 g for 1 min and subsequent up-take in 10 mM HEPES buffer pH 7.2. Finally, the cells were diluted to an optical density of 0.3 at 600 nm wavelength. To measure the permeabilization of the outer membrane, nitrocefin (Merck, Darmstadt, Germany) was diluted in HEPES buffer to a concentration of 60 μg/ml. The antimicrobial peptides were diluted in HEPES buffer to an end concentration of 12 μM, 24 μM, 48 μM and 96 μM end concentration. In the next step, 50 μl of nitrocefin were admixed with 50 μl of antimicrobial peptide and 50 μl of bacteria suspension such that an end concentration of 20 μg/ml of nitrocefin, 4 μM to 32 μM of antimicrobial peptide and bacteria with an optical density of 0.1 to 600 nm were present. The samples were mixed and the absorption at 500 nm wavelength was measured directly over a period of at least 90 min at 37° C. with regular shaking in a FLUOstar omega Microplate Reader (BMG Labtech, Ortenberg, Germany). The investigation of the permeabilization of the inner membrane was carried out in the same way except that instead of the nitrocefin accordingly 0-nitrophenyl-beta-D-galactoside (ONPG, Sigma-Aldrich) in an end concentration of 100 μg/ml was used and the absorption change was determined at a wavelength of 420 nm. The control used was samples without antimicrobial peptide, the positive control used for the membrane permeabilization was polymyxin B (Sigma-Aldrich) in an end concentration of 5 μM. For the data evaluation, firstly the measurement values of the corresponding negative controls were deducted from the measurement values of the samples, and the difference was then divided by the corresponding measurement values of the permeabilization control. Then, a graphical evaluation was carried out, the calculated values being plotted against the peptide concentration and being fitted with the help of the Origin Pro 8.1 G Software (OriginLab) according to a sigmoidal model.
As comparison parameter between the peptides, the times were ascertained from this at which 50% of the final signal level was reached. For this purpose, the equation with the percentage membrane permeabilization y, the time x in minutes, the lower plateau A1, the upper plateau A2, the point of inflection Log X0 and the Hill incline p
[formula] was used. The calculation of the parameters A1, A2, Log X0 and p was performed by the program by reference to the compensating curve. Further resolution of equation 5.1 for the case y=50 then produced for x the desired time at which the half-maximum signal level was reached.

[4] = U937, complete suppression of cell growth after four days

Question: With `CC[C@H](C)[C@H](NC(=O)CN)C(=O)NCC(=O)N[C@@H](C)C(=O)N[C@H](C(=O)N[C@@H](CC(C)C)C(=O)N[C@@H](CCCCN)C(=O)N[C@H](C(=O)N[C@@H](CC(C)C)C(=O)N[C@H](C(=O)N[C@H](C(=O)NCC(=O)N[C@@H](CC(C)C)C(=O)N1CCC[C@H]1C(=O)N[C@@H](C)C(=O)N[C@@H](CC(C)C)C(=O)N[C@H](C(=O)N[C@@H](CO)C(=O)N[C@@H](Cc1c[nH]c2ccccc12)C(=O)N[C@H](C(=O)N[C@@H](CCCCN)C(=O)N[C@@H](CCCNC(=N)N)C(=O)N[C@@H](CCCCN)C(=O)N[C@@H](CCCNC(=N)N)C(=O)N[C@@H](CCC(N)=O)C(=O)N[C@@H](CCC(N)=O)C(N)=O)[C@@H](C)CC)[C@@H](C)CC)[C@@H](C)O)[C@@H](C)O)C(C)C)C(C)C` [Melittin] as the molecule, how does the “Toxicity LD50” value [1] read?
Answer: The value was 1.4 µM.

Question: And the “Toxicity MTC (minimum toxic concentration)” value (shortened to “Toxicity MTC”) [2, 4]?
Answer: Its value is 2.0 µM.

Question: How did the “Outer membrane, time to 50% of final signal” value ([3]; 4 μM peptide) turn out when ILPWKWPWWPWRR [Indolicidin] was run?
Answer: The value was over 90 min.

Question: And the “Outer membrane, time to 50% of final signal” value ([3]; 8 μM peptide)?
Answer: The value was over 90 min.

Question: What about the “Outer membrane, time to 50% of final signal” value ([3]; 16 μM peptide) of the same molecule?
Answer: Its value is over 90 min.

Question: And the “Outer membrane, time to 50% of final signal” value ([3]; 32 μM peptide)?
Answer: Its value is over 90 min.

Question: What about the “Toxicity LD50” value [1] of the same molecule?
Answer: The value was over 64 µM.

Question: And the “Toxicity MTC” value [2, 4]?
Answer: Its value is over 64 µM.

Question: How did the “Outer membrane, time to 50% of final signal” value ([3]; 4 μM peptide) turn out when KILILIKRK-OH [N4] was run?
Answer: The value was 54 min.

Question: What about the “Outer membrane, time to 50% of final signal” value ([3]; 8 μM peptide) of the same molecule?
Answer: Its value is 49 min.

Question: What about the “Outer membrane, time to 50% of final signal” value ([3]; 16 μM peptide) of the same molecule?
Answer: Its value is 31 min.

Question: And the “Outer membrane, time to 50% of final signal” value ([3]; 32 μM peptide)?
Answer: Its value is 17 min.

Question: What about the “Toxicity MTC” value [2] of the same molecule?
Answer: The value was over 64 µM.

Question: KRKRKILILIKRK-OH [N1] was tested. Which “Outer membrane, time to 50% of final signal” value ([3]; 4 μM peptide) did it give?
Answer: Its value is 21 min.

Question: And the “Outer membrane, time to 50% of final signal” value ([3]; 8 μM peptide)?
Answer: The value was 14 min.

Question: And the “Outer membrane, time to 50% of final signal” value ([3]; 16 μM peptide)?
Answer: Its value is 12 min.

Question: And the “Outer membrane, time to 50% of final signal” value ([3]; 32 μM peptide)?
Answer: The value was 11 min.

Question: And the “Toxicity MTC” value [2]?
Answer: Its value is 32 µM.

Question: How did the “Outer membrane, time to 50% of final signal” value ([3]; 4 μM peptide) turn out when “MPRRRRSSSRPVRRRRRPRVSRRRRRRGGRRR (Protamine)” was run?
Answer: Its value is under 1 min.

Question: And the “Outer membrane, time to 50% of final signal” value ([3]; 8 μM peptide)?
Answer: The value was under 1 min.

Question: What about the “Outer membrane, time to 50% of final signal” value ([3]; 16 μM peptide) of the same molecule?
Answer: Its value is under 1 min.

Question: And the “Outer membrane, time to 50% of final signal” value ([3]; 32 μM peptide)?
Answer: The value was under 1 min.

Question: And the “Toxicity LD50” value [1]?
Answer: The value was over 64 µM.

Question: What about the “Toxicity MTC” value [2] of the same molecule?
Answer: The value was 16 µM.
